“And” between values parts separate entries of the source, which are not always exact repeats. Identical values can stand only once.
Experiment: xn = mol fraction of the nth substance listed
Conditions: 101 kPa

| electrical conductivity (288.15 K, x2 = 0) | viscosity (288.15 K, x2 = 0) | electrical conductivity (298.15 K, x2 = 0) | electrical conductivity (308.15 K, x2 = 0) | electrical conductivity (288.15 K, x1 = 0.0001) | electrical conductivity (298.15 K, x1 = 0.0001) | viscosity (298.15 K, x1 = 0.0001) | electrical conductivity (308.15 K, x1 = 0.0001) | viscosity (308.15 K, x1 = 0.0001) | Structure (SMILES) |
| --- | --- | --- | --- | --- | --- | --- | --- | --- | --- |
| 0.0001 S/m | 1.133 mPa·s | 0.0001 S/m | 0.0002 S/m | – | – | – | – | – | O + CCCC[n+]1ccn(C)c1.[Br-] |
| – | – | – | – | 0.0311 S/m and 0.0454 S/m and 0.0612 S/m | 0.0389 S/m and 0.0568 S/m and 0.0759 S/m | 0.892 mPa·s and 0.894 mPa·s | 0.069 S/m | 0.731 mPa·s | CCCC[n+]1ccn(C)c1.[Br-] + O |

— a compilation of properties of binary mixtures (doi:10.1016/j.molliq.2017.08.056)
